PubChem BioAssay (NCI)
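Dose response: 5 concentrations. Exposure: 48 h. Format: 96-well plates. Endpoint: linear interpolation; highest concentration if not reached. The concentration for full growth arrest is given as TGI.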

Key:
Experiment in all cases: inhibition of tumour cell growth, NCI panel, 48 h
[1] = system: A549 NSCLC
[2] = system: BT-549 breast
[3] = system: HCT-116 colon
[4] = system: M14 melanoma
[5] = system: MDA-MB-435
[6] = system: MDA-N
[7] = system: MOLT-4 leukemia
[8] = system: NCI-H23 lung
[9] = system: NCI-H460 lung
[10] = system: SF-268 CNS
[11] = system: SF-295 CNS
[12] = system: SF-539 CNS

Compound: COC(=O)c1csc(-c2nc(CCNC(=O)OC(C)(C)C)sc2Br)n1
- TGI [1]: > 100 µM
- TGI [2]: > 100 µM
- TGI [3]: > 100 µM
- TGI [4]: > 100 µM
- TGI [5]: > 100 µM
- TGI [6]: > 100 µM
- TGI [7]: > 100 µM
- TGI [8]: > 100 µM
- TGI [9]: > 100 µM
- TGI [10]: > 100 µM
- TGI [11]: > 100 µM
- TGI [12]: > 100 µM

Compound: CSC1=C(c2ccc(Cl)cc2)SC(N2CCCCC2)N1c1ccc([N+](=O)[O-])cc1 (stereo not drawn)
- TGI [1]: > 100 µM
- TGI [2]: > 100 µM
- TGI [3]: 62.8 µM
- TGI [4]: > 100 µM
- TGI [5]: > 100 µM
- TGI [6]: > 100 µM
- TGI [7]: 75.9 µM
- TGI [8]: 85.2 µM
- TGI [9]: 66.4 µM
- TGI [10]: > 100 µM
- TGI [11]: 61.2 µM
- TGI [12]: 56.5 µM

Compound: Cn1c2ccccc2c(=NNc2ccc(C(=O)O)cc2)c2ccccc21
- TGI [1]: 38.7 µM
- TGI [2]: 74.9 µM
- TGI [3]: 34.5 µM
- TGI [4]: 31.8 µM
- TGI [5]: 34.3 µM
- TGI [6]: 33.7 µM
- TGI [7]: 57.4 µM
- TGI [8]: 57.8 µM
- TGI [9]: 43.5 µM
- TGI [10]: 48 µM
- TGI [11]: 78.4 µM
- TGI [12]: 49.9 µM

Compound: N#Cc1ccc(OCc2nc3cc(C(F)(F)F)ccc3nc2-c2ccccc2)cc1
- TGI [1]: > 100 µM
- TGI [2]: > 100 µM
- TGI [3]: > 100 µM
- TGI [4]: > 100 µM
- TGI [5]: > 100 µM
- TGI [6]: > 100 µM
- TGI [7]: > 100 µM
- TGI [8]: > 100 µM
- TGI [9]: > 100 µM
- TGI [10]: > 100 µM
- TGI [11]: > 100 µM
- TGI [12]: > 100 µM

Compound: Cc1c(NC(=S)Nc2ccc(Cl)cc2)c(=O)n(-c2ccccc2)n1C
- TGI [1]: > 100 µM
- TGI [2]: > 100 µM
- TGI [3]: > 100 µM
- TGI [4]: > 100 µM
- TGI [5]: > 100 µM
- TGI [6]: > 100 µM
- TGI [7]: > 100 µM
- TGI [8]: > 100 µM
- TGI [9]: > 100 µM
- TGI [10]: > 100 µM
- TGI [11]: > 100 µM
- TGI [12]: > 100 µM

Compound: CC12Cc3cc4c(cc3C1(c1ccc([N+](=O)[O-])cc1)OCCO2)OCO4 (stereo not drawn)
- TGI [1]: > 100 µM
- TGI [2]: 91.9 µM
- TGI [3]: > 100 µM
- TGI [4]: > 100 µM
- TGI [5]: > 100 µM
- TGI [6]: > 100 µM
- TGI [7]: > 100 µM
- TGI [8]: > 100 µM
- TGI [9]: > 100 µM
- TGI [10]: 71.6 µM
- TGI [11]: 57.7 µM
- TGI [12]: > 100 µM

Compound: OC1COC(n2c3ccc(Br)cc3c3ccc4c5ccccc5[nH]c4c32)C(O)C1O (stereo not drawn)
- TGI [1]: 23.7 µM
- TGI [2]: 26.3 µM
- TGI [3]: 12 µM
- TGI [4]: 15.3 µM
- TGI [5]: 16.1 µM
- TGI [6]: 15.2 µM
- TGI [7]: 11.2 µM
- TGI [8]: 12 µM
- TGI [9]: 18.6 µM
- TGI [10]: 19.9 µM
- TGI [11]: 10.6 µM
- TGI [12]: 16.2 µM

Compound: COc1cc(COC(=O)N2CCC2C(=O)O)c([N+](=O)[O-])cc1OC (stereo not drawn)
- TGI [1]: > 100 µM
- TGI [2]: > 100 µM
- TGI [3]: > 100 µM
- TGI [4]: > 100 µM
- TGI [5]: > 100 µM
- TGI [6]: > 100 µM
- TGI [7]: > 100 µM
- TGI [8]: > 100 µM
- TGI [9]: > 100 µM
- TGI [10]: > 100 µM
- TGI [11]: > 100 µM
- TGI [12]: > 100 µM

Compound: O=S1C2=C(Cc3ccccc3)C(Cc3ccccc3)=C1CCc1cccc(c1)CC2
- TGI [1]: 36.3 µM
- TGI [2]: 27.2 µM
- TGI [3]: 21.5 µM
- TGI [4]: 29 µM
- TGI [5]: 27.5 µM
- TGI [6]: 30.6 µM
- TGI [7]: 63.7 µM
- TGI [8]: 28.2 µM
- TGI [9]: 26.8 µM
- TGI [10]: 31.8 µM
- TGI [11]: 27.1 µM
- TGI [12]: 41 µM

Compound: C=CC[C@H]1[C@H](O[Si](C)(C)C(C)(C)C)C=CC(=O)[C@@H]1CC(=O)N(Cc1ccccc1)Cc1ccccc1
- TGI [1]: > 100 µM
- TGI [2]: 51.6 µM
- TGI [3]: 54.5 µM
- TGI [4]: > 100 µM
- TGI [5]: > 100 µM
- TGI [6]: > 100 µM
- TGI [7]: > 100 µM
- TGI [8]: 30.5 µM
- TGI [9]: > 100 µM
- TGI [10]: 93.4 µM
- TGI [11]: > 100 µM
- TGI [12]: > 100 µM

Compound: COc1cccc(NC(=O)CC(=O)N2N=C(C)C(N=Nc3ccc(S(=O)(=O)c4ccc(N=NC5C(=O)N(C(=O)CC(=O)Nc6cccc(OC)c6)N=C5C)cc4)cc3)C2=O)c1 (stereo not drawn)
- TGI [1]: > 100 µM
- TGI [2]: > 100 µM
- TGI [3]: > 100 µM
- TGI [4]: > 100 µM
- TGI [5]: > 100 µM
- TGI [6]: > 100 µM
- TGI [7]: > 100 µM
- TGI [8]: > 100 µM
- TGI [9]: > 100 µM
- TGI [10]: > 100 µM
- TGI [11]: > 100 µM
- TGI [12]: > 100 µM

Compound: O=[N+]([O-])c1ccc2nc(/C=C(\O)c3ccc(F)cc3)c(/C=C(\O)c3ccc(F)cc3)nc2c1
- TGI [1]: > 100 µM
- TGI [2]: 91.5 µM
- TGI [3]: > 100 µM
- TGI [4]: > 100 µM
- TGI [5]: > 100 µM
- TGI [6]: > 100 µM
- TGI [7]: 43.5 µM
- TGI [8]: 77.7 µM
- TGI [9]: > 100 µM
- TGI [10]: > 100 µM
- TGI [11]: 57.6 µM
- TGI [12]: 56.3 µM

Compound: CC[C@@H](/C=C\CCC1(C[C@H](O)CCC=C(C)C)OCCO1)O[Si](C(C)C)(C(C)C)C(C)C
- TGI [1]: > 100 µM
- TGI [2]: 63.6 µM
- TGI [3]: 38.6 µM
- TGI [4]: 72.7 µM
- TGI [5]: > 100 µM
- TGI [6]: > 100 µM
- TGI [7]: 45.4 µM
- TGI [8]: 61.8 µM
- TGI [9]: 53.3 µM
- TGI [10]: 41.9 µM
- TGI [11]: 43.1 µM
- TGI [12]: 34.8 µM

Compound: c1cc2c(c(-c3c4ccccc4nc4ccccc34)c1)CC1(CC2)OCCO1
- TGI [1]: > 100 µM
- TGI [2]: > 100 µM
- TGI [3]: > 100 µM
- TGI [4]: > 100 µM
- TGI [5]: > 100 µM
- TGI [6]: > 100 µM
- TGI [7]: > 100 µM
- TGI [8]: > 100 µM
- TGI [9]: > 100 µM
- TGI [10]: > 100 µM
- TGI [11]: > 100 µM
- TGI [12]: > 100 µM
